In ChEMBL document CHEMBL4118038, “Tricyclic Polyprenylated Acylphloroglucinols from St John's Wort, Hypericum perforatum” (J Nat Prod, 2017) one finds IC50 data, which are given here for 14 compounds.

Test [1] deals with Acetylcholinesterase (Homo sapiens, UniProt P22303). As to the kind of experiment: Inhibition of human erythrocyte AChE using S-acetylthiocholine iodide as substrate preincubated for 20 mins followed by substrate addition measured every 30 secs for 1 hr by Ellman's method. (In general: DTNB colorimetry detects thiols as they appear.)
In test [2] the test system is SMMC-7721. Briefly: Cytotoxicity against human SMMC7721 cells assessed as reduction in cell viability after 48 hrs by MTS assay. Format: functional, cell-based. The settings on record: SMMC-7721, 48 h. A general note: Formazan colour is commonly taken as a measure of viable cells.

Structures are written as SMILES.

Acetylcholinesterase, sequence (P22303 whole entry): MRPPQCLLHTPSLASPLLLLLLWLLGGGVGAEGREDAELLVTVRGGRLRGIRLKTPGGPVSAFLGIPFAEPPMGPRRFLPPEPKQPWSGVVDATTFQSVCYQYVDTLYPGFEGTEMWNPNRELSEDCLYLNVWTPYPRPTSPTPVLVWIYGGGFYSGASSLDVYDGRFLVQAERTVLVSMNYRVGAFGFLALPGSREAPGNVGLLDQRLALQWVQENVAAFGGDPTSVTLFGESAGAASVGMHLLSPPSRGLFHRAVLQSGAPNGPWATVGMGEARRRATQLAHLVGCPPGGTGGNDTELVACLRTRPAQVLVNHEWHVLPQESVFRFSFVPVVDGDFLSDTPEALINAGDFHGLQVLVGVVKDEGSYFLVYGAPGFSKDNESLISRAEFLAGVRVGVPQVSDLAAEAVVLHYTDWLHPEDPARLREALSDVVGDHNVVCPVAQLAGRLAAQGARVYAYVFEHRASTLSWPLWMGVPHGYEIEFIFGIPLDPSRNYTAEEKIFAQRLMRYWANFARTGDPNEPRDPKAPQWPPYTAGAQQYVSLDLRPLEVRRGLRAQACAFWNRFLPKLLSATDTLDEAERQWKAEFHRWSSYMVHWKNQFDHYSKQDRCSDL

As to `CC(C)=CCC[C@]1(C)[C@@H](CC=C(C)C)C[C@@]2(CC=C(C)C)C(=O)[C@]1(C(=O)C(C)C)C(=O)C1=C2O[C@H](C(C)(C)O)[C@H]1O`, in test [1], half-maximal inhibition (IC50) required 18.6 µM.
Still for that read-out and setting: under `COC(C)(C)/C=C/C[C@]1(C)[C@@H](CC=C(C)C)C[C@]2(CC=C(C)C)C(=O)C3=C(O[C@@H](C(C)(C)O)C3)[C@@]1(C(=O)C(C)C)C2=O` stands 7.17 µM; under `CC(C)=CCC[C@]1(C)[C@@H](CC=C(C)C)C[C@@]2(CC=C(C)C)C(=O)[C@]1(C(=O)C(C)C)C(=O)C1=C2O[C@@H](C(C)(C)O)[C@@H]1O`, 11.3 µM; under `COC(C)(C)/C=C/C[C@]1(C)[C@@H](CC=C(C)C)C[C@]2(CC=C(C)C)C(=O)C3=C(O[C@H](C(C)(C)O)C3)[C@@]1(C(=O)C(C)C)C2=O`, 3.98 µM.
For the compound `C=C(C)[C@H](O)CC[C@]1(C)[C@@H](CC=C(C)C)C[C@@]2(CC=C(C)C)C(=O)[C@]1(C(=O)C(C)C)C(=O)C1=C2O[C@H](C(C)(C)O)C1`, the IC50 (usually the midpoint of a concentration-inhibition curve) in test [2] came out at 9.1 µM; in test [1], 26.4 µM.
In turn, `C=C(C)[C@@H](O)CC[C@]1(C)[C@@H](CC=C(C)C)C[C@]23C[C@@H](C(C)(C)O)OC2=C(CC=C(C)C)C(=O)[C@@]1(C(=O)C(C)C)C3=O` gave an IC50 in test [1] of 9.13 µM.
The same measure, in the same setting: under `C=C(C)[C@H](O)CC[C@]1(C)[C@@H](CC=C(C)C)C[C@@]2(CC=C(C)C)C(=O)[C@]1(C(=O)C(C)C)C(=O)C1=C2O[C@@H](C(C)(C)O)C1` stands 25.1 µM.
Still for that read-out and setting: under `C=C(C)[C@H](O)CC[C@]1(C)[C@@H](CC=C(C)C)C[C@]2(CC=C(C)C)C(=O)C3=C(O[C@H](C(C)(C)O)C3)[C@@]1(C(=O)C(C)C)C2=O` stands 19.6 µM; under `C=C(C)[C@@H](O)CC[C@]1(C)[C@@H](CC=C(C)C)C[C@]2(CC=C(C)C)C(=O)C3=C(O[C@H](C(C)(C)O)C3)[C@@]1(C(=O)C(C)C)C2=O`, 10.7 µM; under `CC(C)=CCC[C@]1(C)[C@@H](CC=C(C)C)C[C@]2(CC=C(C)C)C(=O)C3=C(O[C@H](C(C)(C)O)[C@H]3O)[C@@]1(C(=O)C(C)C)C2=O`, 8.83 µM.
Turning to `CC(C)=CC[C@H]1C[C@@]2(CC=C(C)C)C(=O)[C@](C(=O)C(C)C)(C(=O)C3=C2O[C@H](C(C)(C)O)C3)[C@]1(C)CCC(=O)C(C)C`, 10.9 µM corresponded to half-maximal inhibition in test [1] (IC50).
Same read-out and setting: under `CC(C)=CCC1=C2O[C@H](C(C)(C)O)C[C@@]23C[C@H](CC=C(C)C)[C@@](C)(CCC(=O)C(C)C)[C@@](C(=O)C(C)C)(C1=O)C3=O` stands 24.3 µM.
With `CC(=O)[C@@]12C(=O)C(CC=C(C)C)=C3O[C@H](C(C)(C)O)C[C@]3(C[C@H](CC=C(C)C)[C@@]1(C)CCC=C(C)C)C2=O`, the IC50 is 10 µM in test [2] and 8.75 µM in test [1].
`CC(C)=CCC[C@]1(C)[C@@H](CC=C(C)C)C[C@]2(CC=C(C)C)C(=O)C3=C(O[C@@H](C(C)(C)O)[C@@H]3O)[C@@]1(C(=O)C(C)C)C2=O` displayed an IC50 in test [1] of 12.6 µM.
